Measurements: ChEMBL document CHEMBL1201862, “PubChem BioAssay data set” (2004)
Activity calls are given as the source filed them.

Columns and labels:
[1] = biological target: Neurotensin receptor type 1 (Homo sapiens, UniProt P30989); assay type: functional;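 also: Image-based confirmatory dose-response assay measuring agonist activity at NTR1; NTR1-expressing U2OS osteosarcoma cells imaged for beta-arrestin GFP spot formation; agonist potency where compounds increase beta-arrestin recruitment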
[2] = Luminescence Cell-Based Dose Retest to Confirm Inhibitors of Cancer Stem Cells. [Related pubchem assays (depositor defined):AID2717, AID2721]; assay type: functional; conditions: Homo sapiens
[3] = cytotoxicity in HMLE control line with eGFP shRNA, dose response, counter-screen for HMLE_sh_ECad selective toxicity project, cell-based, HMLE_sh_eGFP, luminescence (AID 463074); assay type: functional, Homo sapiens;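 also: HMLE human mammary epithelial cells expressing control shRNA against eGFP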
[4] = biological target: Heat shock protein HSP 90-alpha (Homo sapiens, UniProt P07900); assay type: functional, organism-based
[5] = biological target: Protein Tat (Human immunodeficiency virus type 1 group M subtype B (isolate HXB2)(HIV-1), UniProt P04608); assay type: functional;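 also: tat binding to TAR RNA read out by fluorescence polarization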
[6] = cytotoxicity in HEK-293T cells, dose response, cytotoxicity control for BCR NF-kB inhibitor project, luminescence, B-cell screen hits (AID 489021); assay type: functional, cell-based;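 also: HEK-293T cells carrying an NF-kB luciferase reporter; cells exposed to compound for about 14 hours before viability readout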
[7] = P. falciparum late gametocyte killing, dose response, luminescence (AID 1117278); assay type: functional, cell-based;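 also: gametocytes exposed to compound for 24 hours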
[8] = Jurkat T cell cytotoxicity, dose response, cytotoxicity control for P. falciparum gametocyte viability project, luminescence (AID 1117277); assay type: functional, cell-based;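 also: potency reflects loss of cellular ATP meaning fewer viable cells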
[9] = biological target: Eukaryotic translation initiation factor 4H (Homo sapiens, UniProt Q15056); test: human eIF4H binding inhibitors, primary screen, translation initiation inhibitor project, biochemical, uHTS, fluorescence polarization (AID 2012)
[10] = biological target: Polyadenylate-binding protein 1 (Homo sapiens, UniProt P11940); test: PABP poly(A) RNA binding inhibitors, primary screen, biochemical, fluorescence polarization, uHTS (AID 2014)
[11] = cells; conditions: HEK293
[12] = inhibitors of Vif binding to APOBEC3G peptide, primary screen, biochemical, TR-FRET, GST-Vif 1-94, biotin-A3G peptide, dose response retest (AID 1117319); assay type: functional;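 also: TR-FRET signal of purified GST-Vif binding a biotinylated A3G peptide; inhibitors lower the FRET signal by blocking Vif and A3G binding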
[13] = biological target: E3 ubiquitin-protein ligase Mdm2 (Homo sapiens, UniProt Q00987); test: enhancers of MDM2-luciferase reporter signal, concentration-effect titration, project on inhibitors of MDM2 ubiquitin ligase, cellular assay, luminescent readout, 384-well plate format (AID 1394); assay type: functional;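 also: MDM2 E3 inhibitors raise luminescence so EC50 is for signal enhancement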
[14] = tested on: INS1; test: beta cell apoptosis inhibitors, cytokine rescue, dose response, luminescence, retest (AID 449756); assay type: functional, cell-based; conditions: Rattus norvegicus;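 also: cell death triggered by IL-1 beta plus TNF-alpha plus IFN-gamma mixture; protective hits raise ATP signal compared with cytokine alone wells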
[15] = biological target: T1, Mannose-6-phosphate isomerase (Homo sapiens, UniProt P34949); test: inhibitors of human PMI, primary screen, biochemical, fluorescence intensity, coupled assay (AID 1209)
T1 sequence (P34949 whole entry): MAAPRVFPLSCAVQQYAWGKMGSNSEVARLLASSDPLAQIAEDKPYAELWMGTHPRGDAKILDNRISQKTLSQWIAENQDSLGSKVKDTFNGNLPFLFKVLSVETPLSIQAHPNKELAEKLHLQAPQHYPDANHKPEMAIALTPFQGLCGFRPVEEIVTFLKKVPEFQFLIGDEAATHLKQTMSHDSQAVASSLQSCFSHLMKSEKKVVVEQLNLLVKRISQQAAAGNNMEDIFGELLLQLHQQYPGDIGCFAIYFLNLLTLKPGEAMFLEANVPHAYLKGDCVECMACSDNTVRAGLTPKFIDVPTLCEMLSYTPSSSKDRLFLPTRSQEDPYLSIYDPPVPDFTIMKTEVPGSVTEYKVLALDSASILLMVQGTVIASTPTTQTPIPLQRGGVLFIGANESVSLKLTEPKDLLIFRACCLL

[16] = biological target: T1, Mannose-6-phosphate isomerase; test: human PMI inhibitors, high substrate, primary screen, biochemical, fluorescence intensity, high mannose 6-phosphate (AID 1220)
[17] = biological target: T2, Oxysterols receptor LXR-beta (Homo sapiens, UniProt P55055); test: LXR agonists, Gal4 luciferase reporter, dose response, counter-screen for ssDAF-12 agonist project, cell-based, luminescence, HEK293, S. stercoralis campaign (AID 720737); assay type: functional; conditions: read-out: IC50 (the source's name)
T2 sequence (P55055 whole entry): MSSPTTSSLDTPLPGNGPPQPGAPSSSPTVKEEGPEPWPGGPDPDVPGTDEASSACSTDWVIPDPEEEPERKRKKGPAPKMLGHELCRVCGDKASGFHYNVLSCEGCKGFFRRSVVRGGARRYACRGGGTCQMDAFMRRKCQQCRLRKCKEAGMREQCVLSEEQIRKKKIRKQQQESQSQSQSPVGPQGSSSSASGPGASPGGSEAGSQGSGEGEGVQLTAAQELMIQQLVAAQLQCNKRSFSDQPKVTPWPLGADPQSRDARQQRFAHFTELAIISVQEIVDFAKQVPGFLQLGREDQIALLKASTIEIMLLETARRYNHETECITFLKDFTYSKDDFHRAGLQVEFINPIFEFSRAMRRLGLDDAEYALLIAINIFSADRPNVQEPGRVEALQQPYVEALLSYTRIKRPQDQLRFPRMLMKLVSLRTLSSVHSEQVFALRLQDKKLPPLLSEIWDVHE

[18] = Luminescence-based cell-based high throughput dose response assay to identify activators of the DAF-12 from the parasite S. stercoralis (ssDAF-12).; assay type: functional
[19] = biological target: Lysosomal acid glucosylceramidase (Homo sapiens, UniProt P04062); test: Dose response cell-based high throughput screening assay to identify enhancers of beta-glucosidase activity. [Related pubchem assays: 784 ]; assay type: functional
[20] = HeLa 4N DNA content increase, dose response, cell-based, IC50 (AID 1117351); assay type: functional
[21] = HeLa 2N DNA content increase, dose response, cell-based, IC50 (AID 1117349); assay type: functional
[22] = biological target: DNA dC->dU-editing enzyme APOBEC-3G (Homo sapiens, UniProt Q9HC16); assay type: functional;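 also: Dose-response counterscreen measuring inhibition of APOBEC3G DNA deaminase activity, run while confirming APOBEC3A inhibitors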
[23] = biological target: DNA dC->dU-editing enzyme APOBEC-3A (Homo sapiens, UniProt P31941); test: Dose Response confirmation of small molecule APOBEC3A DNA Deaminase Inhibitors via a fluorescence-based single-stranded DNA deaminase assay. [Related pubchem assays (depositor defined):AID493011, AID493024]; assay type: functional
[24] = biological target: Kallikrein-7 (Homo sapiens, UniProt P49862); test: Fluorescence Intensity-based biochemical primary high throughput dose response assay to identify activators of kallikrein-7 (K7) zymogen.
[25] = Vero cell cytotoxicity, dose response, cytotoxicity control for Vif-APOBEC3G degradation inhibitor project, Vero cells (AID 1117358); assay type: functional; conditions: Human immunodeficiency virus 1, Vero
[26] = Luminescence Cell-Based Dose Confirmation HTS to Identify Inhibitors of Polyadenylation.; assay type: functional
[27] = biological target: T3, Alkaline phosphatase, tissue-nonspecific isozyme (Homo sapiens, UniProt P05186)
T3 sequence (P05186 whole entry): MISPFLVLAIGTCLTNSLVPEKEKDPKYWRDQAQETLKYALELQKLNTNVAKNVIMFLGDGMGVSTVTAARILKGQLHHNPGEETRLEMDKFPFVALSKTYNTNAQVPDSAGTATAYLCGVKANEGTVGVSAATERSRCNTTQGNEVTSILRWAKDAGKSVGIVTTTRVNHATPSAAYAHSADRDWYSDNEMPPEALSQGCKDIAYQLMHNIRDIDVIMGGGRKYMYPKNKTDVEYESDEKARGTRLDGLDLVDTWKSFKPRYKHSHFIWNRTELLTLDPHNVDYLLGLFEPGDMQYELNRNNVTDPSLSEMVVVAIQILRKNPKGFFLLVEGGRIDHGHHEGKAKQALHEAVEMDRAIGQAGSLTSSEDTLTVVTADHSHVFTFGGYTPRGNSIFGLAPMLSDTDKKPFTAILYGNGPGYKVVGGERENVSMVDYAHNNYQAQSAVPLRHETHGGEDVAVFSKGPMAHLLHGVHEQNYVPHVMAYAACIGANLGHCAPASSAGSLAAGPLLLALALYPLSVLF

[28] = biological target: T4, Estrogen receptor beta (Homo sapiens, UniProt Q92731); test: ERβ–SRC-3 coactivator interaction inhibitors, confirmation, orthogonal assay, biochemical, ELISA, streptavidin-HRP readout (AID 1060)
[29] = biological target: T4, Estrogen receptor beta
[30] = A2780 ovarian cancer cell cytotoxicity, dose response, cytotoxicity control, plate reader, dry powder samples (AID 743046); assay type: functional, cell-based
[31] = NIH:OVCAR-3 ovarian cancer cell cytotoxicity, dose response, PAX8 inhibitor project, plate reader, dry powder samples (AID 743044); assay type: functional, cell-based
[32] = biological target: Paired box protein Pax-8 (Homo sapiens, UniProt Q06710); test: inhibitors of PAX8-driven TPO luciferase reporter, dose response, RMG-I cells, cherry-pick (AID 687027); assay type: functional, cell-based;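 also: luciferase reporter driven by Pax8 target thyroperoxidase promoter measured by SteadyGlo luminescence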
[33] = non-specific cell cytotoxicity, dose response, cytotoxicity control for PAX8 inhibitor project, plate reader, dry powder samples (AID 743021); assay type: functional, cell-based

T4 sequence (Q92731 whole entry): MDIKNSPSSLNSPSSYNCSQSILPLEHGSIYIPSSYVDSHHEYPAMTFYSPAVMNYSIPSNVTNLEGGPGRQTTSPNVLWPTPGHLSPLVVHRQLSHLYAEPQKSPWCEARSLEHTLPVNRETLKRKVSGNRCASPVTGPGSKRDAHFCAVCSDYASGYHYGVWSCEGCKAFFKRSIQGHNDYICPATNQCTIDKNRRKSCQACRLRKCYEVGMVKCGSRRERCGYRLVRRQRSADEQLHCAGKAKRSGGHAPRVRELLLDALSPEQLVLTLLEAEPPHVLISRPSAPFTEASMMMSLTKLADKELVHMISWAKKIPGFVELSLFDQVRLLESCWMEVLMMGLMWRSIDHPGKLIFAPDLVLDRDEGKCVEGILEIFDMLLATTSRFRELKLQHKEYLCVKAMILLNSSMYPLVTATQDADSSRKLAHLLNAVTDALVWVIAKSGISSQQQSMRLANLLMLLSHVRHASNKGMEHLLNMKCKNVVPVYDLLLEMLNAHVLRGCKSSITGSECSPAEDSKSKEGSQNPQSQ
Protein Tat, sequence (P04608 whole entry): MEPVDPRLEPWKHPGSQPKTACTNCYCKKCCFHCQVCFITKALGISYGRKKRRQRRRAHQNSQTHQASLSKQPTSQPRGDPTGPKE
Lysosomal acid glucosylceramidase, sequence (P04062 whole entry): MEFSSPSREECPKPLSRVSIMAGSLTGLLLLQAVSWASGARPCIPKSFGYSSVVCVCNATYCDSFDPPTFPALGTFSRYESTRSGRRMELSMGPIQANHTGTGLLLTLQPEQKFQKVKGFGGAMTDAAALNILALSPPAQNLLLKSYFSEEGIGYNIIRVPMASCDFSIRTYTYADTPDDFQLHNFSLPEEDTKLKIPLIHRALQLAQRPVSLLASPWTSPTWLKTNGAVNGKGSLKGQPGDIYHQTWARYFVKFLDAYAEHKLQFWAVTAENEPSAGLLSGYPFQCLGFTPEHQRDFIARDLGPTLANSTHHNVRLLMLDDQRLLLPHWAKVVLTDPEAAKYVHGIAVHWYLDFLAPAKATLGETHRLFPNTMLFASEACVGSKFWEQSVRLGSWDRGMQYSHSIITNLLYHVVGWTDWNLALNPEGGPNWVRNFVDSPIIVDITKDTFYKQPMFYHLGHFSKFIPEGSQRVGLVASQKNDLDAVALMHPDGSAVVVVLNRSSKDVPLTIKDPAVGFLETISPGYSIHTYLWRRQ
Neurotensin receptor type 1, sequence (P30989 whole entry): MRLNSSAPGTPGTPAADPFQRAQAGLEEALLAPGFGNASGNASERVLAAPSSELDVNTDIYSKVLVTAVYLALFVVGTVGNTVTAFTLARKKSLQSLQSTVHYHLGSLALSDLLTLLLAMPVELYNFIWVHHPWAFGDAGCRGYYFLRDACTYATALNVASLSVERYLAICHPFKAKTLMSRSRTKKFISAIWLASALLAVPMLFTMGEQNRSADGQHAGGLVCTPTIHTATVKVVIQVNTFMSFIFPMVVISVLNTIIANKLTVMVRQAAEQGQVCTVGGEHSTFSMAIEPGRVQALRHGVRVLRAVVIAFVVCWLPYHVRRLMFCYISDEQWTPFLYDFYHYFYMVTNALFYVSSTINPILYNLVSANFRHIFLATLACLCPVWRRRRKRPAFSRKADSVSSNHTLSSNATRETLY
DNA dC->dU-editing enzyme APOBEC-3A, sequence (P31941 whole entry): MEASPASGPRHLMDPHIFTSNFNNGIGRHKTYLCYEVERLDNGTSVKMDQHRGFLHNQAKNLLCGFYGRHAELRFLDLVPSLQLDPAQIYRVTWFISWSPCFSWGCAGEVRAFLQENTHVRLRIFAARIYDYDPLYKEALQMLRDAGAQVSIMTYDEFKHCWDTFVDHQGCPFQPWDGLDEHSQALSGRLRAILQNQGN
Paired box protein Pax-8, sequence (Q06710 whole entry): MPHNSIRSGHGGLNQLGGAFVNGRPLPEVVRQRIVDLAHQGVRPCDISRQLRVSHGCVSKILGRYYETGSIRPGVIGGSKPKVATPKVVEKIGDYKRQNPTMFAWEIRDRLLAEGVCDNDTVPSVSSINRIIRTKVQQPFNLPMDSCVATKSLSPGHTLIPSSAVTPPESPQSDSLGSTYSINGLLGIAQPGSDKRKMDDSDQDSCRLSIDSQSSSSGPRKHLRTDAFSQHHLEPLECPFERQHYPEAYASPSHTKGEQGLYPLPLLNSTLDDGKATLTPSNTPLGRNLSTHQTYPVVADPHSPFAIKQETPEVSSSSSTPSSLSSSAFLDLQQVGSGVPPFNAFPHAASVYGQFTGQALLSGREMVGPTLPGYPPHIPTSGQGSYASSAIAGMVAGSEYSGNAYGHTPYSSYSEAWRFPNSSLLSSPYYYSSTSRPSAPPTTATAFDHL
Polyadenylate-binding protein 1, sequence (P11940 whole entry): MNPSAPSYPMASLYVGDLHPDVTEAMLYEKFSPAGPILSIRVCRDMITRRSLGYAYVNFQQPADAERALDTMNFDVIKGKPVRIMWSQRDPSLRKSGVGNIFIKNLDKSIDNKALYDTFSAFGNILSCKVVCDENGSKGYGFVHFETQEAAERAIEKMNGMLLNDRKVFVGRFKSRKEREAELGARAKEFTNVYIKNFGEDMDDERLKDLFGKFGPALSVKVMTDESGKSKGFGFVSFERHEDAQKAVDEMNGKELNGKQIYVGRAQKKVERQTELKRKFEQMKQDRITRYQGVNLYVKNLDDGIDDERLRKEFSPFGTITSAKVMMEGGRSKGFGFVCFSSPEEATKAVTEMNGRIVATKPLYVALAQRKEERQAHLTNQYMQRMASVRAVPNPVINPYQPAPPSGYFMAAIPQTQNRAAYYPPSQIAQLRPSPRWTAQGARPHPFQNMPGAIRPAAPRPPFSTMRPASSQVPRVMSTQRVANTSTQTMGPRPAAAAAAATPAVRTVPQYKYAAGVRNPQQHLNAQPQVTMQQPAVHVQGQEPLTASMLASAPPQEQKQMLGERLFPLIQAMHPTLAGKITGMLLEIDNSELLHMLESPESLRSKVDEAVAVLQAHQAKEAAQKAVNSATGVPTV
E3 ubiquitin-protein ligase Mdm2, sequence (Q00987 whole entry): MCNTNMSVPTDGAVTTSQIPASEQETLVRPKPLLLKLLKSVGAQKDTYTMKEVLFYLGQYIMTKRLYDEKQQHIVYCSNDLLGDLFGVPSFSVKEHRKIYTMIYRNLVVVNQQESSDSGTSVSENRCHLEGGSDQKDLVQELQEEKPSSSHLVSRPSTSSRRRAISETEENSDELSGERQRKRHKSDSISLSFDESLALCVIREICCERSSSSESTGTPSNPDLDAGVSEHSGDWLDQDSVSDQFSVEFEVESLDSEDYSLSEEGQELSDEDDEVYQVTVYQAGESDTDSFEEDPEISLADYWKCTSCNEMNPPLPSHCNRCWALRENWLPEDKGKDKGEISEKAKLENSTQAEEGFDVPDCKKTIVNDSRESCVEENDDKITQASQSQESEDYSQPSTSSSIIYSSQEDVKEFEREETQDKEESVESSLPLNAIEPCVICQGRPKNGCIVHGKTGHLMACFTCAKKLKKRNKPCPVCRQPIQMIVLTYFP
Kallikrein-7, sequence (P49862 whole entry): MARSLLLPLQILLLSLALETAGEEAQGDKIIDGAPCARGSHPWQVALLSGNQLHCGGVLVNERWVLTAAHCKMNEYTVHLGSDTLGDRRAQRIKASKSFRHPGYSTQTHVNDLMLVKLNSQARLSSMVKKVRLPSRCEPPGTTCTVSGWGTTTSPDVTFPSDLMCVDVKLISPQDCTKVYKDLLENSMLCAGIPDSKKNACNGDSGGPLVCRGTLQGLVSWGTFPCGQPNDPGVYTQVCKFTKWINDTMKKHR
DNA dC->dU-editing enzyme APOBEC-3G, sequence (Q9HC16 whole entry): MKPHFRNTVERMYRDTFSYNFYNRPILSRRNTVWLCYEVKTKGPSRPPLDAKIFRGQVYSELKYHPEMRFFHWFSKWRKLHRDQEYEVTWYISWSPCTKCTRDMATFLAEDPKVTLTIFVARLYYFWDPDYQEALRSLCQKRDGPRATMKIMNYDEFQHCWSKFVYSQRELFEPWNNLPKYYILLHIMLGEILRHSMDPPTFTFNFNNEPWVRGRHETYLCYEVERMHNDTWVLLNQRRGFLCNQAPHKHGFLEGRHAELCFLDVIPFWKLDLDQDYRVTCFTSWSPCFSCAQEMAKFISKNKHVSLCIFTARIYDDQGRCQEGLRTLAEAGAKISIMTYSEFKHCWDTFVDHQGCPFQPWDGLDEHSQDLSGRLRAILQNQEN

## O=C(/C=C/c1ccc(Cl)c([N+](=O)[O-])c1)c1cccnc1
[1]
  EC50: > 40 µM (inactive)
[2]
  AC50: 4.16 µM (active)
[3]
  AC50: 56.4 µM (active)
[4]
  AC50: 1.31 µM (active)

## CCn1c(SCC(=O)Nc2cc(C)on2)nnc1-c1cccnc1
[5]
  IC50: > 100 µM (active)

## Cc1cnc(NC(=O)Nc2ccc(Cl)cc2)s1
[6]
  IC50: > 80 µM (inactive)

## CC1CCCN(CC(O)CN)C1 (centres undefined)
[7]
  IC50: > 109 µM (inactive)
[8]
  IC50: > 83.3 µM (inactive)

## CCN1C(NCc2cc(OC)c(OC)c(OC)c2)=N[C@@H](c2ccccc2)[C@H](C(=O)OC)[C@H]1C
[9]
  IC50: > 100 µM (inactive)
[10]
  IC50: 11.9 µM (active)

## c1ccc2c(c1)ncn2CCOc1ccc2c(c1)CCC2
[11]
  AC50: 36.7 µM (active)

## Nc1cccc2c1C(=O)N(C(=O)/C=C/c1cccc(Br)c1)C2=O
[12]
  IC50: > 100 µM (active)
[13]
  EC50: 7.82 µM (active)

## COc1ccc(C(=O)NC(=S)NNC(=O)c2cnccn2)cc1OC
[14]
  AC50: 1.03 µM (active)
[15]
  IC50: > 50 µM (not active)

## O=C(CCl)Nc1ccccc1Sc1ccccc1
[6]
  IC50: > 80 µM (inactive)

## Cc1ccc([N+](=O)[O-])cc1/N=C/C1=C(O)c2ccccc2CC1
[15]
  IC50: > 50 µM (not active)
[16]
  IC50: > 50 µM (not active)

## Cc1c(C(=O)O/N=C(\N)c2ccccn2)cccc1[N+](=O)[O-]
[17]
  EC50: > 67.6 µM (inactive)
[18]
  IC50: > 67.6 µM (inactive)

## O=C(NCC(=O)N(c1cccnc1)C(C(=O)NC1CCCC1)c1ccco1)c1cccs1 (centres undefined)
[19]
  EC50: > 50 µM (not active)

## CCOc1ccc2nc3cc(N)ccc3c(N)c2c1 [ETHACRIDINE LACTATE]
[20]
  IC50: > 10 µM (inactive)
[21]
  IC50: > 10 µM (inactive)

## CCN(CC(=O)Nc1c(F)cccc1F)C(=O)c1cccc(-n2cccc2)c1
[22]
  IC50: 34.8 µM (active)
[5]
  IC50: > 100 µM (active)
[23]
  IC50: 15.9 µM (active)

## N#Cc1c(N2CCN(c3ccc(F)cc3)CC2)nc(N)c2c(N)nc3c(c12)CC(=O)N3C1CC1
[16]
  IC50: > 50 µM (not active)

## O=C(NCCCN1CCCC1=O)c1cc2nc(-c3ccco3)cc(C(F)(F)F)n2n1
[24]
  EC50: > 69.5 µM (inactive)

## CC(=O)c1ccc(NC(=O)CSCCO)cc1
[19]
  EC50: > 50 µM (not active)

## CCC(=O)N1CCc2cc(S(=O)(=O)NCCC(=O)NC3CCCc4ccccc43)ccc21 (centres undefined)
[12]
  IC50: > 100 µM (active)

## Cc1ccc(S(=O)(=O)N(C)CC(O)Cn2c3ccccc3c3ccccc32)cc1 (centres undefined)
[25]
  CC50: > 40 µM (active)

## COc1ccc(CC(=O)OCn2nnc3ccccc3c2=O)cc1
[25]
  CC50: > 40 µM (active)

## CCOC(=O)[C@H]1[C@H]2COc3cc(OC)ccc3[C@@H]2N2C(=O)c3ccc(C)cc3NC(=O)[C@@]12C
[7]
  IC50: > 109 µM (inactive)
[8]
  IC50: > 83.3 µM (inactive)

## COc1ccc2c(c1)c1nnc(SC)nc1n2C
[26]
  EC50: > 120 µM (not active)

## COc1cccc(-c2nc3ccccc3s2)c1O
[17]
  EC50: > 67.6 µM (inactive)
[18]
  IC50: > 67.6 µM (inactive)

## CC(Oc1ccccc1)C(=O)NNC(=O)c1ccccn1 (centres undefined)
[27]
  EC50: 66.5 µM (not active)

## Cc1ccc(-c2nc(Nc3cccc(O)c3)c3ccccc3n2)cc1
[1]
  EC50: 30.6 µM (inactive)
[2]
  AC50: 5.05 µM (active)

## CCc1nc2oc3cc(OC)ccc3c(=O)c2c(=O)n1Cc1ccco1
[28]
  IC50: 0.0586 µM (not active)
[29]
  IC50: 30.7 µM (not active)

## O=C1NCCCC2c3cc(O)c4ccccc4c3OC12N1CCCCC1 (centres undefined)
[28]
  IC50: > 50 µM (not active)
[29]
  IC50: 13.6 µM (active)

## CCOc1ccc(CCNC(=O)CN2C(=O)CCSc3ccccc32)cc1OCC
[26]
  EC50: > 120 µM (not active)

## C[C@H](CO)N1C[C@H](C)[C@H](CN(C)C(=O)[C@H](Cc2ccccc2)N(C)C)OCc2ccccc2-c2c(n(C)c3ccccc23)C1=O
[30]
  AC50: 12.6 µM (active)
[31]
  AC50: 45.4 µM (active)
[32]
  AC50: 16.4 µM (active)
[33]
  AC50: 36.2 µM (active)
